{
  "source": "paper PMC7732128",
  "about": "“Regulation of gene transcription by thyroid hormone receptor β agonists in clinical development for the treatment of non-alcoholic steatohepatitis (NASH)” (PLoS ONE, 2020)",
  "key": {"[1]": {"target": "T1, THRα (in complex with RXR) (Homo sapiens, UniProt P10827)", "T1 construct": "expressed in transfected cells; host or cells: HEK293T", "T1 sequence (P10827 1-410 isoform P10827-2)": "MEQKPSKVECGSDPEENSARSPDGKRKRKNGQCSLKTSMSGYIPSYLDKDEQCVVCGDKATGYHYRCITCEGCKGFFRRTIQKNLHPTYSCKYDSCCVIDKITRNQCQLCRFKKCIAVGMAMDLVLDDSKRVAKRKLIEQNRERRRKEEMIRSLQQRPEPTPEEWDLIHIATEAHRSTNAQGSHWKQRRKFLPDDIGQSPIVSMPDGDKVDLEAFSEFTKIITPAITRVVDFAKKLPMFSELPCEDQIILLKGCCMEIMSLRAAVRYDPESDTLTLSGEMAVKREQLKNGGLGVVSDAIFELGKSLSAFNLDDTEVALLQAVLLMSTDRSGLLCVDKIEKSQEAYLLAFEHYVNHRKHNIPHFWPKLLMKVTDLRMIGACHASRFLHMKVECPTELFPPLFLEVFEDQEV", "T1 sequence (P19793 1-462 partner)": "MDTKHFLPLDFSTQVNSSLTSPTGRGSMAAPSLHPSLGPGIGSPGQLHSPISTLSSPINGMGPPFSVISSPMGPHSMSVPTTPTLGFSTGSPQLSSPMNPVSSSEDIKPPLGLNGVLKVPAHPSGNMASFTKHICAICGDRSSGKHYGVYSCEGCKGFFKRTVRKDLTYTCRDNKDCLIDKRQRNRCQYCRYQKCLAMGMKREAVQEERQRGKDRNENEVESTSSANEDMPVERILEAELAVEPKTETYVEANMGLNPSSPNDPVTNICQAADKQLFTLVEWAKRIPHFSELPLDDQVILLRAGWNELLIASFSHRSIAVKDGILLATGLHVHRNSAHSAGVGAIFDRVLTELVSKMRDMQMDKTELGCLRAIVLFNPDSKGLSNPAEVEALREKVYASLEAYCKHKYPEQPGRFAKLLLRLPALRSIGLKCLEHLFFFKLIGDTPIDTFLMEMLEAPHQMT", "assay": "Luciferase reporter assay in HEK293T cells, THRα", "format": "cell-based", "conditions": "read-out: THRα EC50 Mean ± SEM", "protocol": "After initial characterization of in vitro THR-binding/activation, compounds were tested for their ability to bind and activate THRα or β (in complex with RXR), inducing gene expression, in cultured human-derived cells. To this end, HEK293T cells were transiently transfected with a firefly luciferase reporter under control of a TRE (TRE-Luc), a RXR expression plasmid, and either a THRα or β expression plasmid. This assay was performed at Pharmaron Beijing Co., Ltd. (China).\nCells were seeded into 6-well culture plates at 7.0 x 10^5 cells/well and cultured in Dulbecco’s Modified Eagle’s Medium (DMEM; Hyclone, SH30022) supplemented with 10% fetal bovine serum (FBS; Gibco, 16000–044) and 1% Penicillin-Streptomycin (P/S; Corning, 30-002-CI) at 37°C and 5% CO2. […] After overnight incubation, the transfected cells were re-seeded at 1.0 x 10^4 cells/well into 384-well microplates and incubated for an additional 5 to 6 hrs. Test compounds were serially diluted in DMSO and added to the cells (0.1% final DMSO concentration). After approximately 18 to 24 hrs, the culture plates were equilibrated to RT, 30 μL ONE-Glo reagent (Promega, E6120) was added to each well, and luminescence was measured on an EnSpire plate reader (Perkin Elmer). The results were then quantified by calculating percent agonism and dose-response curves were fitted by non-linear regression with variable slope. […]"}, "[2]": {"target": "T2, GST-tagged THRα LBD (Homo sapiens, UniProt P10827)", "T2 construct": "purchased Invitrogen", "assay": "TR-FRET thyroid hormone receptor coactivator assay, THRα", "format": "biochemical", "conditions": "read-out: THRα EC50 Mean ± SEM", "from_the_text": "(§1) A time-resolved FRET (TR-FRET)-based, biochemical assay was used as an initial screen to assess the ability of compounds to bind either THRα or β in vitro. […] Upon excitation of the terbium-labeled anti-GST antibody, energy is transferred to the fluorescein-labeled coactivator peptide and is detected as emission at 520 nm.\nThe assay procedure is based on the manufacturer’s protocol for LanthaScreen™ TR-FRET Thyroid Receptor beta Coactivator Assay (Invitrogen, PV4686) with slight, optimized modifications. Briefly, the assay was performed in 384-well, black microplate plates, protected from light. Test compounds were serially diluted in DMSO (1.0% final DMSO concentration) and added to the test plate. […]\nIn the TR-FRET thyroid hormone receptor coactivator assay, increasing concentrations of each compound was combined with the GST-tagged LBD of THRα or β, a coactivator peptide, and terbium-labeled anti-GST antibody. TR-FRET was then measured and dose-response curves were generated. […] Luminescence was measured and dose-response curves were generated. For both assays, calculated EC50 means ± SEM, n, and THRα EC50-to-THRβ EC50 ratios (α:β) are reported for each compound-THR subtype combination."}, "[3]": {"target": "T3, GST-tagged THRβ LBD (Homo sapiens, UniProt P10828)", "T3 construct": "purchased Invitrogen PV4686", "T3 sequence (P10828 217-461 limits assumed)": "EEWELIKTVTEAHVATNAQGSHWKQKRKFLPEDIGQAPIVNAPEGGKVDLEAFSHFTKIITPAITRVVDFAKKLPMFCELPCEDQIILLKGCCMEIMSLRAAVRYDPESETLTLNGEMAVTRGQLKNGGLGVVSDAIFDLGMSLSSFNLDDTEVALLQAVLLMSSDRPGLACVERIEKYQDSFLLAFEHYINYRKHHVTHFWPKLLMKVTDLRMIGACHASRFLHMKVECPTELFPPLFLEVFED", "assay": "TR-FRET thyroid hormone receptor coactivator assay, THRβ", "format": "biochemical", "conditions": "for EC50: read-out: THRβ EC50 Mean ± SEM", "from_the_text": "as §1\nThe assay procedure is based on the manufacturer’s protocol for LanthaScreen™ TR-FRET Thyroid Receptor beta Coactivator Assay (Invitrogen, PV4686) with slight, optimized modifications. Briefly, the assay was performed in 384-well, black microplate plates, protected from light. Test compounds were serially diluted in DMSO (1.0% final DMSO concentration) and added to the test plate. GST-tagged THRα or β LBD was added to the plate to yield a final concentration of 1.0 nM, followed by a mixture of the fluorescein-labeled SRC2-2 coactivator peptide and terbium-labeled anti-GST antibody at the final concentrations of 200.0 nM and 2.0 nM, respectively. […] Statistical analysis was performed in GraphPad Prism 8.0.\nIn the TR-FRET thyroid hormone receptor coactivator assay, increasing concentrations of each compound was combined with the GST-tagged LBD of THRα or β, a coactivator peptide, and terbium-labeled anti-GST antibody. TR-FRET was then measured and dose-response curves were generated. In the luciferase reporter assay, HEK293T cells were transfected with a firefly luciferase reporter plasmid under the control of the TRE-Luc, a RXR expression plasmid, and either a THRα or β expression plasmid. The cells were then treated with increasing concentrations of each compound. Luminescence was measured and dose-response curves were generated. For both assays, calculated EC50 means ± SEM, n, and THRα EC50-to-THRβ EC50 ratios (α:β) are reported for each compound-THR subtype combination."}},
  "data": [
    {"smiles": "Cc1cc(OCP(=O)(O)O)cc(C)c1Cc1ccc(O)c(C(C)C)c1", "note": "[VK2809A]", "values": [
      {"measurement": "EC50", "setting": "[1]", "result": "297 ± 41.4", "unit": "nM"},
      {"measurement": "EC50", "setting": "[2]", "result": "25.5 ± 7", "unit": "nM"},
      {"measurement": "α:β (THRα EC50-to-THRβ EC50 ratio)", "setting": "[3]", "result": 2.5},
      {"measurement": "EC50", "setting": "[3]", "result": "10.1 ± 2.7", "unit": "nM"}
    ]},
    {"smiles": "Cc1cc(OCP2(=O)OCC[C@@H](c3cccc(Cl)c3)O2)cc(C)c1Cc1ccc(O)c(C(C)C)c1", "note": "(some centres unmarked) [VK2809]", "values": [
      {"measurement": "EC50", "setting": "[1]", "result": "54.8 ± 11.7", "unit": "nM"},
      {"measurement": "EC50", "setting": "[2]", "result": "253 ± 40.7", "unit": "nM"},
      {"measurement": "α:β (THRα EC50-to-THRβ EC50 ratio)", "setting": "[3]", "result": 0.6},
      {"measurement": "EC50", "setting": "[3]", "result": "460 ± 163", "unit": "nM"}
    ]}
  ]
}
